# Reference: US20230337719A1, “ORAL PRODUCT” (Nicoventures Trading Limited, priority 2020, published 2023)
# Assays:
# [1] = Modern Oral Intervention Trial: in-mouth glycoside degradation of spiked oral product, HPLC quantitation; format: in vivo, human
# Procedure: Test Product - An oral product was prepared based on the commercial product sold by British American Tobacco as LYFT. The product included microcrystalline cellulose as a filler. […] The samples were then left at room temperature for one day to evaporate the ethanol.
# Modern Oral Intervention Trial - Three healthy volunteers (female, 30-35 years of age) were asked to place the raspberry ketone spiked oral product under their upper lip, slightly to the side of the front teeth. After 30 sec, the product was moisturised by using the tip of the tongue. After 5 min, the product was disgorged into a centrifuge tube and any salivary enzymatic processes stopped by adding methanol (5 mL, p.A.) into the centrifuge tube. The procedure was repeated with intervention times of 0 (control sample), 10 and 20 min.
# Sample Preparation - The centrifuge tubes containing the oral product and methanol (5 mL, p.A.) were vortexed for 10 sec and then placed on a plate shaker for 10 min to extract the remaining raspberry ketone glycoside. Afterwards, the tubes were centrifuged (13,200 rpm, 10 min) and the supernatant decanted into a safe lock tube (2 mL). The safe lock tube was centrifuged (13,200 rpm, 10 min) and an aliquot taken for analysis.
# Quantitation of in-mouth glycoside degradation - Analysis was performed on a HPLC system (Knauer, Germany) equipped with a pump (AZURA P2.1S), auto-sampler (AZURA AS 6.1L) and diode-array UV/VIS detector (AZURA DAD 6.1L). Samples were loaded onto a reversed phase C18 column (Knauer, Eurospher II 100 C18, 3 mm × 100 mm) and separated with a 10 min gradient starting at 90% solvent mixture A (0.1% formic acid in water) in solvent mixture B (0.1% formic acid in methanol) at a flow rate of 0.5 mL/min changing to 30% A in 5 min and back to 90% A in 0.05 min holding for 4.5 min. The detection UV wavelength was set at 280 nm. Quantitation was performed by using an external calibration curve.
# 3 healthy volunteers were asked to place raspberry ketone spiked oral products under their upper lip according to a defined procedure and leave the pouch in their mouth for 5, 10 and 20 min. The remaining glycoside of the incubated samples as well as a control sample which was not incubated was extracted as described above and quantified by means of high pressure liquid chromatography and an external calibration curve.
# [2] = glucosylation of furaneol by glycosyl transferase; format: biochemical, Vitis vinifera
# Source text: At some instances, the present application refers to a glycosyl transferase being “capable of catalyzing” a certain reaction. For example, the present application may state that a glycosyl transferase is capable of catalyzing transfer of a sugar group from a sugar donor to a certain acceptor. This is meant to designate that under appropriate reaction conditions the rate at which the reaction product (in the example the adduct of the sugar group and the acceptor) is formed is at least 10-fold higher in the presence of said glycosyl transferase than the rate at which the reaction product is formed in a control experiment in the absence of said glycosyl transferase.
molecule,measurement,setting,value
4-[4′-Hydroxy phenyl]-butan-2-one-4′-O-β-D-glucopyranoside [raspberry ketone glycoside],amount of raspberry ketone remaining in product,"[1]; 0 min (control sample, not incubated), tester P-01, product spiked with 1200 ppm raspberry ketone glycoside",0.2 mg/mL
same,amount of raspberry ketone remaining in product,"[1]; 0 min (control sample, not incubated), tester P-02, product spiked with 1200 ppm raspberry ketone glycoside",0.2 mg/mL
same,amount of raspberry ketone remaining in product,"[1]; 0 min (control sample, not incubated), tester P-03, product spiked with 1200 ppm raspberry ketone glycoside",0.2 mg/mL
same,percentage release of raspberry ketone from glycoside,"[1]; 0 min, tester P-01",0%
same,percentage release of raspberry ketone from glycoside,"[1]; 0 min, tester P-02",0%
same,percentage release of raspberry ketone from glycoside,"[1]; 0 min, tester P-03",0%
same,amount of raspberry ketone remaining in product,"[1]; 5 min in mouth, tester P-01",0.15 mg/mL
same,percentage release of raspberry ketone from glycoside,"[1]; 5 min in mouth, tester P-01",25%
same,amount of raspberry ketone remaining in product,"[1]; 5 min in mouth, tester P-02",0.13 mg/mL
same,percentage release of raspberry ketone from glycoside,"[1]; 5 min in mouth, tester P-02",35%
same,amount of raspberry ketone remaining in product,"[1]; 5 min in mouth, tester P-03",0.16 mg/mL
same,percentage release of raspberry ketone from glycoside,"[1]; 5 min in mouth, tester P-03",20%
same,amount of raspberry ketone remaining in product,"[1]; 10 min in mouth, tester P-01",0.12 mg/mL
same,percentage release of raspberry ketone from glycoside,"[1]; 10 min in mouth, tester P-01",40%
same,amount of raspberry ketone remaining in product,"[1]; 10 min in mouth, tester P-02",0.10 mg/mL
same,percentage release of raspberry ketone from glycoside,"[1]; 10 min in mouth, tester P-02",50%
same,amount of raspberry ketone remaining in product,"[1]; 10 min in mouth, tester P-03",0.16 mg/mL
same,percentage release of raspberry ketone from glycoside,"[1]; 10 min in mouth, tester P-03",20%
same,amount of raspberry ketone remaining in product,"[1]; 20 min in mouth, tester P-01",0.06 mg/mL
same,percentage release of raspberry ketone from glycoside,"[1]; 20 min in mouth, tester P-01",70%
same,amount of raspberry ketone remaining in product,"[1]; 20 min in mouth, tester P-02",0.06 mg/mL
same,percentage release of raspberry ketone from glycoside,"[1]; 20 min in mouth, tester P-02",70%
same,amount of raspberry ketone remaining in product,"[1]; 20 min in mouth, tester P-03",0.13 mg/mL
same,percentage release of raspberry ketone from glycoside,"[1]; 20 min in mouth, tester P-03",35%
same,glycoside enzymatically cleaved,"[1]; after 20 min in mouth incubation, across all panellists",35 - 70%
"WGT14: terpene glycosyl transferase VvGT14 from Vitis vinifera (SEQ ID NO: 1) (protein, listed as Vitis vinifera) MGSMEKPHAVCIPYPAQGHINPMLKVAKLLHFRGFRITFVNTEFNHTRLLKAQGPNSLNGLPTFQFETIPDGLPPSNVDATQDIPSLCASTKKNCLAPFRRLLAKLNDRGPPVTCIFSDAVMSFTLDAAQELGIPDLLLWTASACGFMAYVQYRSLIDKGFTPLKDESYLTNGYLDTVVDWIPGMKGIRLKDLPSFIRTTDPDDIMLDFAMGELERARKASAIIFNTFDALEQEVLDAIAPMYPPIYTIGPLQLLPDQIHDSELKLIGSNLWKEEPECLKWLDSKEPNSVVYVNYGSITVMTPQQLIEFAWGLANSNQSFLWILRPDLVSGESAILPPEFVAETEDRGLLAGWCPQEQVLTHQAIGGFLTHNGWNSTIEGLCAGVPMICWPFFAEQQTNCRYCCTEWGVGMEIDSDVKRDEVAKLVRELMVGEKGKVMKKKTMEWKHRAEVATTGPDGSSYLNLEKIFEQVLL",capability of catalyzing glucosylation of furaneol,[2],capable of catalyzing glucosylation of furaneol
